Laboratory results published in PMC11259696, “Small molecule MarR modulators potentiate metronidazole antibiotic activity in aerobic E. coli by inducing activation by the nitroreductase NfsA” (The Journal of Biological Chemistry, 2024).
Values after ≈ are worked out from the molar mass of the structure shown.

Experiments:
MarR = biological target: T1, MarR (Escherichia coli, UniProt P27245); assay: thermal shift assay with Kd (ΔTm […] °C); EMSA release of marO DNA (EC50 […]); assay type: binding
T1 construct: recombinant His-tagged MarR (pET15b, gene from BW25113)
T1 sequence (P27245 whole entry): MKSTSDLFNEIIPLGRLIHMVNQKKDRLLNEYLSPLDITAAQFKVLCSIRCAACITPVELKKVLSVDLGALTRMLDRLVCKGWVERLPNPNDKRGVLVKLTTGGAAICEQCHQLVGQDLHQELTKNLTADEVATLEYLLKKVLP

NfsA [1] = biological target: T2, NfsA (Escherichia coli, UniProt P17117); assay: reduction by purified recombinant NfsA (2-electron reduction); assay type: biochemical
T2 construct: recombinant His-tagged NfsA (pET28, gene from BW25113)
T2 sequence (P17117 1-240): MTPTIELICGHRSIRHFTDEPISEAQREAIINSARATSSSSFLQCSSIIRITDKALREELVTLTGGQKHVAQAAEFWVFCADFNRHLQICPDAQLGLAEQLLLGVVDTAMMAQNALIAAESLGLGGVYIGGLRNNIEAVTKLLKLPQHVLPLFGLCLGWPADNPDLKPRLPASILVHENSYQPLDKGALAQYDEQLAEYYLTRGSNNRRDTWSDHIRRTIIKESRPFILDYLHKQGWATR

E. coli ΔtolC = test system: T3, E. coli ΔtolC; assay: microbe, parasite or virus in culture; design: resazurin microtiter MIC90 in CAMHB, aerobic, 2-fold dilutions, fluorescence; turnover below 10% of control; conditions: Escherichia coli, 5 h; MIC90, antibiotic alone, aerobic; read-out: MIC90 against E. coli ∆tolC under aerobic conditions (µg/mL) / Alone
T3 construct: BW25113 ΔtolC efflux-deficient tolC deletion strain
Method: The MIC was determined using the colorimetric resazurin microtiter assay. Experiments were performed in 96-well plate format with a 100 μl final volume. Briefly, a suspension of an E. coli strain of interest was prepared in CAMHB (BD) at an A600 of 0.001. When required, boosters or arabinose were added to the suspension, and MTZ or NFZ antibiotics were tested in a concentration gradient through serial 2-fold dilutions. After 5 h of incubation at 37 °C, 10 μl of resazurin 12.5% was added to each well, and an additional incubation was carried out for 1.5 h. Fluorescence was measured using a Fluostar Optima BMG Labtech (Ex: 530 nm; Em: 590 nm). Values were converted to resazurin turnover based on minimal (no bacteria added to the medium) and maximal (no antibiotic added) fluorescence values. MIC90 values were determined when resaruzin turnover was ˂10% of control.

[2] = test system: MarR (His-tagged) (Escherichia coli BW25113); assay: EMSA; conditions: EMSA: His-MarR 5 uM preincubated with BDM76441 15 min 25 C, then 100 nM marO 15 min 25 C (10 ul); 6% DNA retardation gel, 0.5x TBE, 150 V 45 min; binding …
NfsA [3] = biological target: T2, NfsA; assay: UHPLC-MS turnover by purified NfsA with NADPH consumption and GSH trapping; assay type: biochemical
NfsA [4] = biological target: T2, NfsA; assay: UHPLC-MS of NADPH consumption and NADP+ production by purified NfsA; assay type: biochemical
NfsA [5] = biological target: T2, NfsA; assay: EPR detection of MTZ radical anion formed by purified NfsA (1-electron reduction); NADPH consumption by UHPLC-MS; assay type: biochemical

Row | Compound | MIC90 (E. coli ΔtolC) | further results
1 | O=C(Nc1ccc(I)cc1C(=O)O)c1cccs1 [BDM76441] | – | Kd (MarR): 9.8 ± 1.6 µM
2 | CC1=CC(=O)c2ccccc2C1=O [menadione] | – | reduction by purified recombinant NfsA (2-electron reduction) (NfsA [1]): confirmed that NfsA could reduce both menadione (2-electron reduction) and ferrocyanide (1-electron reduction)
3 | O=C(Cn1ccnc1[N+](=O)[O-])NCc1ccccc1 [Benznidazole] | 62.5 µg/mL (≈ 240 µM) | –
4 | Cc1ncc([N+](=O)[O-])n1CCCO [Ternidazole] | > 500 µg/mL | –
5 | marO (marRAB promoter PCR fragment) | – | IC50 [2]: 38 µM
6 | NC(=O)N/N=C/c1ccc([N+](=O)[O-])o1 [NFZ, nitrofurazone] | 15.6 µg/mL (≈ 78.7 µM) | UHPLC-MS turnover by purified NfsA with NADPH consumption and GSH trapping (NfsA [3]): with purified recombinant NfsA, we observed a rapid biotransformation of NFZ accompanied by a conversion of NADPH to NADP+
7 | Cc1ncc([N+](=O)[O-])n1CC(O)CCl (centres unmarked) [Ornidazole] | > 500 µg/mL | –
8 | Cc1ncc([N+](=O)[O-])n1C [Dimetridazole] | > 500 µg/mL | –
9 | Cc1ncc([N+](=O)[O-])n1CC(C)O (centres unmarked) [Secnidazole] | > 500 µg/mL | –
10 | O=[N+]([O-])c1cncn1CCN1CCOCC1 [Nimorazole] | > 500 µg/mL | –
11 | NC(=O)C1=CN([C@@H]2O[C@H](COP(=O)(O)OP(=O)(O)OC[C@H]3O[C@@H](n4cnc5c(N)ncnc54)[C@H](OP(=O)(O)O)[C@@H]3O)[C@@H](O)[C@H]2O)C=CC1 [NADPH] | – | UHPLC-MS of NADPH consumption and NADP+ production by purified NfsA (NfsA [4]): rapid biotransformation of NFZ accompanied by a conversion of NADPH to NADP+ as measured by UHPLC-MS analysis
12 | Cc1ncc([N+](=O)[O-])n1CCO [MTZ, metronidazole] | > 500 µg/mL | EPR detection of MTZ radical anion formed by purified NfsA (1-electron reduction) (NfsA [5]): these results confirmed the formation of MTZ radical anions by NfsA under aerobic conditions
